Measured values as given in the supplement of paper PMC10307832.

Columns and labels:
Experiment in all cases: relative viability (nuclei count vs DMSO), 5 days (fraction); higher = more cells survive
[1] = compound: CN1CCN(c2ccc3nc(-c4c(N)c5c(F)cccc5[nH]c4=O)[nH]c3c2)CC1 [Dovitinib] + CC(=O)Nc1cccc(-n2c(=O)n(C3CC3)c(=O)c3c(Nc4ccc(I)cc4F)n(C)c(=O)c(C)c32)c1 [Trametinib] (partner 0.02 µM)
Outline: (§1)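 Each reported value is a median over duplicate plates. It expresses relative viability: treated-well nuclei count divided by vehicle-well nuclei count. Lung cancer cell lines in 1536-well plates were dosed by pin tool a day after seeding, alone with one drug or with a fixed anchor-drug dose plus five library-drug doses (not always all listed) in √10 steps, and nuclei were counted after 5 days.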

[2] = compound: CN1CCN(c2ccc3nc(-c4c(N)c5c(F)cccc5[nH]c4=O)[nH]c3c2)CC1 [Dovitinib] + COc1cccc2cc(-c3nc([C@H]4CC[C@H](C(=O)O)CC4)n4ncnc(N)c34)[nH]c12 [OSI-027] (partner 0.5 µM)
Outline: as §1

[3] = compound: CN1CCN(c2ccc3nc(-c4c(N)c5c(F)cccc5[nH]c4=O)[nH]c3c2)CC1 [Dovitinib] + CS(=O)(=O)CCNCc1ccc(-c2ccc3ncnc(Nc4ccc(OCc5cccc(F)c5)c(Cl)c4)c3c2)o1 [Lapatinib] (partner 2 µM)
Outline: as §1

[4] = compound: CN1CCN(c2ccc3nc(-c4c(N)c5c(F)cccc5[nH]c4=O)[nH]c3c2)CC1 [Dovitinib] + C[C@]1(O)C[C@@H](c2nc(-c3ccc4ccc(-c5ccccc5)nc4c3)c3c(N)nccn32)C1 [Linsitinib] (partner 1 µM)
Outline: as §1

Cell Line | relative viability ([1]; first compound 0.02 µM) | relative viability ([1]; first compound 0.06325 µM) | relative viability ([1]; first compound 0.2 µM) | relative viability ([1]; first compound 0.6325 µM) | relative viability ([1]; first compound 2 µM) | relative viability ([2]; first compound 0.02 µM) | relative viability ([2]; first compound 0.06325 µM) | relative viability ([2]; first compound 0.2 µM) | relative viability ([2]; first compound 0.6325 µM) | relative viability ([2]; first compound 2 µM) | relative viability ([3]; first compound 0.02 µM) | relative viability ([3]; first compound 0.06325 µM) | relative viability ([3]; first compound 0.2 µM) | relative viability ([3]; first compound 0.6325 µM) | relative viability ([3]; first compound 2 µM) | relative viability ([4]; first compound 0.02 µM) | relative viability ([4]; first compound 0.06325 µM) | relative viability ([4]; first compound 0.2 µM) | relative viability ([4]; first compound 0.6325 µM) | relative viability ([4]; first compound 2 µM)
LXF-289 | 0.619 | 0.716 | 0.695 | 0.612 | 0.662 | 0.771 | 0.813 | 0.952 | 0.873 | 0.744 | 0.813 | 0.904 | 0.88 | 0.867 | 0.873 | 0.907 | 0.942 | 0.935 | 0.939 | 0.878
NCI-H23 | 0.391 | 0.446 | 0.376 | 0.4 | 0.378 | 0.486 | 0.599 | 0.665 | 0.605 | 0.534 | 1.02 | 1.09 | 1.05 | 1.13 | 1.17 | 0.546 | 0.664 | 0.623 | 0.57 | 0.506
NCI-H322M | 0.557 | 0.506 | 0.507 | 0.496 | 0.543 | 0.518 | 0.526 | 0.557 | 0.502 | 0.608 | 0.5 | 0.53 | 0.587 | 0.657 | 0.57 | 0.945 | 0.853 | 0.973 | 0.943 | 0.892
NCI-H358 | 0.156 | 0.144 | 0.154 | 0.19 | 0.143 | 0.703 | 0.769 | 0.905 | 0.819 | 0.739 | 0.507 | 0.417 | 0.446 | 0.492 | 0.438 | 0.743 | 0.656 | 0.826 | 0.66 | 0.854
NCI-H460 | 0.161 | 0.146 | 0.206 | 0.224 | 0.128 | 0.587 | 0.842 | 0.708 | 0.708 | 0.721 | 0.913 | 1.05 | 1 | 0.878 | 1.03 | 0.758 | 0.904 | 0.834 | 0.74 | 0.777
NCI-H520 | 0.599 | 0.619 | 0.812 | 0.586 | 0.638 | 0.279 | 0.248 | 0.334 | 0.244 | 0.23 | 0.826 | 0.822 | 0.903 | 0.79 | 0.921 | 0.832 | 0.964 | 0.986 | 0.868 | 1.07
NCI-H596 | 0.701 | 0.844 | 0.764 | 0.694 | 0.777 | 0.644 | 0.776 | 0.669 | 0.808 | 0.779 | 1.05 | 1.13 | 1.14 | 0.894 | 1 | 1.03 | 1.01 | 1.09 | 0.96 | 0.954
NCI-H647 | 0.456 | 0.49 | 0.435 | 0.399 | 0.494 | 0.608 | 0.758 | 0.817 | 0.657 | 0.802 | 1.11 | 1.33 | 1.21 | 1.06 | 0.755 | 1.1 | 1.15 | 1.16 | 1.06 | 1.27
NCI-H650 | 1.02 | 0.952 | 1.08 | 0.946 | 1.21 | 0.503 | 0.515 | 0.538 | 0.521 | 0.565 | 0.91 | 0.819 | 0.784 | 0.896 | 1.12 | 0.953 | 0.675 | 0.839 | 0.95 | 1.01
NCI-H661 | 0.581 | 0.617 | 0.678 | 0.637 | 0.607 | 0.689 | 0.706 | 0.753 | 0.732 | 0.729 | 0.562 | 0.512 | 0.51 | 0.437 | 0.483 | 0.537 | 0.547 | 0.618 | 0.613 | 0.654
NCI-H727 | 0.405 | 0.401 | 0.407 | 0.416 | 0.426 | 0.778 | 0.434 | 0.589 | 0.653 | 0.548 | 0.904 | 0.629 | 0.673 | 0.882 | 0.91 | 0.271 | 0.325 | 0.314 | 0.298 | 0.408
NCI-H838 | 0.514 | 0.499 | 0.487 | 0.477 | 0.543 | 0.324 | 0.41 | 0.385 | 0.37 | 0.471 | 0.907 | 1.11 | 1.05 | 0.919 | 0.97 | 0.97 | 1.05 | 0.999 | 1.01 | 0.977
NCI-H1355 | 0.461 | 0.405 | 0.475 | 0.45 | 0.492 | 0.443 | 0.386 | 0.392 | 0.48 | 0.388 | 0.977 | 0.945 | 0.984 | 1.02 | 1.13 | 0.821 | 0.886 | 0.856 | 0.801 | 0.812
NCI-H1395 | 1.04 | 0.984 | 1.07 | 1.02 | 1.06 | 0.637 | 0.706 | 0.682 | 0.651 | 0.672 | 1.01 | 0.879 | 1.08 | 1.04 | 1.12 | 1.05 | 1.29 | 1.24 | 1.06 | 1.12
NCI-H1437 | 0.564 | 0.475 | 0.521 | 0.519 | 0.462 | 0.877 | 0.881 | 0.867 | 0.903 | 0.916 | 0.813 | 0.802 | 0.843 | 0.821 | 0.788 | 0.963 | 1.05 | 0.984 | 0.955 | 1.03
NCI-H1651 | 0.852 | 0.809 | 0.816 | 0.81 | 0.857 | 0.733 | 0.723 | 0.765 | 0.77 | 0.688 | 0.914 | 1 | 0.913 | 0.777 | 0.929 | 1.05 | 0.895 | 0.902 | 0.929 | 0.936
NCI-H1666 | 1.02 | 0.881 | 0.939 | 0.945 | 0.855 | 0.931 | 0.882 | 0.838 | 0.875 | 0.909 | 0.657 | 0.627 | 0.667 | 0.596 | 0.69 | 0.793 | 0.687 | 0.859 | 0.764 | 0.896
NCI-H1734 | 0.652 | 0.68 | 0.762 | 0.651 | 0.642 | 0.655 | 0.632 | 0.687 | 0.575 | 0.55 | 1.11 | 1.02 | 1.05 | 1.09 | 0.503 | 0.961 | 0.862 | 0.843 | 0.902 | 0.833
NCI-H1755 | 0.831 | 0.766 | 0.794 | 0.733 | 0.758 | 0.744 | 0.732 | 0.759 | 0.714 | 0.712 | 1.08 | 1.07 | 1.02 | 1.05 | 0.976 | 0.968 | 0.976 | 0.94 | 1.01 | 0.998
NCI-H1792 | 0.394 | 0.457 | 0.416 | 0.46 | 0.36 | 0.79 | 0.641 | 0.762 | 0.755 | 0.61 | 0.852 | 0.892 | 0.952 | 1.06 | 0.855 | 0.621 | 0.44 | 0.602 | 0.598 | 0.522
NCI-H1793 | 0.458 | 0.36 | 0.388 | 0.445 | 0.445 | 0.304 | 0.269 | 0.313 | 0.332 | 0.302 | 0.875 | 0.658 | 0.684 | 0.657 | 0.631 | 0.964 | 0.679 | 0.856 | 0.754 | 0.834
NCI-H1915 | 0.275 | 0.282 | 0.306 | 0.283 | 0.319 | 0.559 | 0.635 | 0.621 | 0.602 | 0.647 | 0.87 | 0.955 | 0.971 | 0.944 | 1.02 | 1.09 | 1.09 | 1.08 | 1.09 | 1.05
NCI-H1944 | 0.391 | 0.395 | 0.409 | 0.395 | 0.36 | 0.426 | 0.383 | 0.398 | 0.39 | 0.431 | 0.84 | 0.809 | 0.893 | 0.7 | 0.818 | 1.14 | 1.18 | 1.15 | 1.22 | 1.18
NCI-H1975 | 0.404 | 0.405 | 0.329 | 0.382 | 0.388 | 0.749 | 0.735 | 0.732 | 0.664 | 0.666 | 0.899 | 0.979 | 0.917 | 0.89 | 0.907 | 0.903 | 0.954 | 0.915 | 0.934 | 1.09
NCI-H1993 | 0.517 | 0.481 | 0.489 | 0.58 | 0.502 | 0.599 | 0.545 | 0.597 | 0.505 | 0.573 | 0.853 | 0.803 | 0.952 | 0.799 | 0.731 | 0.774 | 0.678 | 0.657 | 0.695 | 0.808
NCI-H2009 | 0.291 | 0.301 | 0.289 | 0.228 | 0.265 | 0.546 | 0.621 | 0.642 | 0.638 | 0.611 | 0.768 | 0.954 | 0.912 | 0.928 | 1.13 | 1.16 | 1.18 | 1.15 | 1.2 | 1.2
